{"source": "patent US20230049952A1", "about": "“METHODS AND COMPOUNDS FOR RESTORING MUTANT P53 FUNCTION” (PMV Pharmaceuticals, Inc., priority 2020, published 2023)", "key": {"[1]": {"target": "CYP3A (Homo sapiens, UniProt P08684)", "sequence (P08684 2-503)": "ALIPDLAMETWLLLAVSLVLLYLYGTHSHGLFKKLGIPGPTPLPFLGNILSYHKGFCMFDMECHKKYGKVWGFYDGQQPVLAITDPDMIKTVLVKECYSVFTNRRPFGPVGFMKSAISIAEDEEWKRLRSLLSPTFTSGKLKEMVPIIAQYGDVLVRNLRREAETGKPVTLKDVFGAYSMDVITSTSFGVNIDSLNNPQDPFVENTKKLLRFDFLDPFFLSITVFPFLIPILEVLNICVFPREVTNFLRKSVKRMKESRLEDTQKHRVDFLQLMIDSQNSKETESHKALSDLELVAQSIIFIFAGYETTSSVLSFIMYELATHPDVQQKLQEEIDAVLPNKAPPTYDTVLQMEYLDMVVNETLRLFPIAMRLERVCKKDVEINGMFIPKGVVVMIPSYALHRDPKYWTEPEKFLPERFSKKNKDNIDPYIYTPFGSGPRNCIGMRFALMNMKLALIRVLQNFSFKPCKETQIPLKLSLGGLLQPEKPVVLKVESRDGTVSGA", "experiment": "in vitro", "conditions": "both, microsomes, pH 7.4, % of Control Enzyme Activity, HLM; for activity at 10 min, 0.037 µM: 0.0370 μM"}, "[2]": {"test_system": "NUGC-3_KO_p53i", "experiment": "p53 pathway gene profiling, doxycycline-induced WT p53", "assay_type": "cell-based, human", "conditions": "doxycycline 50 ng/ml"}, "[3]": {"target": "CYP2C9 (Homo sapiens, UniProt P11712)", "sequence (P11712 whole entry)": "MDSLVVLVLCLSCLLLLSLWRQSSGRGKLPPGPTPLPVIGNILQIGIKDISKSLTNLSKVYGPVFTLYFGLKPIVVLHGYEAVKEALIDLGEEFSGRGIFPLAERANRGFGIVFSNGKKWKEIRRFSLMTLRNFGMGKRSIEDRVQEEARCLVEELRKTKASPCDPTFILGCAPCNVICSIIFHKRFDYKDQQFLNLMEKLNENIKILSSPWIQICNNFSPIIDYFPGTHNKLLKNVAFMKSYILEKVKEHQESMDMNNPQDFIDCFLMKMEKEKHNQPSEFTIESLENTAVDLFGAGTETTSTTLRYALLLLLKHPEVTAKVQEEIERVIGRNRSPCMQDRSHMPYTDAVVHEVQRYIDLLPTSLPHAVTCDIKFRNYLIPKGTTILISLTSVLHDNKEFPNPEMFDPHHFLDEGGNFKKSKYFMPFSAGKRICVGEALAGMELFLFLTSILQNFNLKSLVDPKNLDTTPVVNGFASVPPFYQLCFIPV", "experiment": "in vitro", "conditions": "both, microsomes, pH 7.4, % of Control Enzyme Activity"}, "[4]": {"conditions": "n=3, * basal expression level is low"}}, "note": "Values joined by “and” are separate entries in the source; they are usually repeats but may differ in a detail not shown here. Equal values may be shown once.", "data": [{"smiles": "CC(=O)N1CCN(c2ccc(OCC3COC(Cn4ccnc4)(c4ccc(Cl)cc4Cl)O3)cc2)CC1", "note": "(stereo not drawn) [Ketoconazole, ketoconazole]", "values": [{"measurement": "activity at 10 min, 0.0123 µM", "setting": "[1]; Midazolam probe", "result": 74.5, "unit": "%"}, {"measurement": "activity at 10 min, 0.037 µM", "setting": "[1]; Midazolam probe", "result": 49.9, "unit": "%"}, {"measurement": "activity at 10 min, 3 µM", "setting": "[1]; Midazolam probe", "result": 5.38, "unit": "%"}, {"measurement": "activity at 10 min, 0.0123 µM", "setting": "[1]; Testosterone probe", "result": 58.4, "unit": "%"}, {"measurement": "activity at 10 min, 0.037 µM", "setting": "[1]; Testosterone probe", "result": 32.9, "unit": "%"}, {"measurement": "activity at 10 min, 0.333 µM", "setting": "[1]; Testosterone probe, 0.333 μM", "result": 6.75, "unit": "%"}, {"measurement": "activity at 10 min, 1 µM", "setting": "[1]; Testosterone probe, 1.00 μM", "result": 3.54, "unit": "%"}, {"measurement": "activity at 10 min, 3 µM", "setting": "[1]; Testosterone probe", "result": 1.56, "unit": "%"}]}, {"smiles": "C[C@H]1c2cccc(O)c2C(=O)C2=C(O)[C@]3(O)C(=O)C(C(N)=O)=C(O)[C@@H](N(C)C)[C@@H]3[C@@H](O)[C@@H]21", "note": "[Doxycycline]", "values": [{"measurement": "APAF1 fold change", "setting": "[2]; n=3", "result": "2.40 ± 0.16", "unit": "fold"}, {"measurement": "BAX fold change", "setting": "[2]; n=3", "result": "2.85 ± 0.08", "unit": "fold"}, {"measurement": "BBC3 fold change", "setting": "[2]; n=3", "result": "2.46 ± 0.06", "unit": "fold"}, {"measurement": "BIRC5 fold change", "setting": "[2]; n=3", "result": "0.52 ± 0.03", "unit": "fold"}, {"measurement": "BRCA1 fold change", "setting": "[2]; n=3", "result": "0.67 ± 0.03", "unit": "fold"}, {"measurement": "BRCA2 fold change", "setting": "[2]; n=3", "result": "0.74 ± 0.02", "unit": "fold"}, {"measurement": "CCNB1 fold change", "setting": "[2]; n=3", "result": "0.57 ± 0.01", "unit": "fold"}, {"measurement": "CCNE 1 fold change", "setting": "[2]; n=3", "result": "0.70 ± 0.01", "unit": "fold"}, {"measurement": "CCNG 1 fold change", "setting": "[2]; n=3", "result": "1.65 ± 0.05", "unit": "fold"}, {"measurement": "CDC25A fold change", "setting": "[2]; n=3", "result": "0.61 ± 0.04", "unit": "fold"}, {"measurement": "CDC25C fold change", "setting": "[2]; n=3", "result": "0.58 ± 0.02", "unit": "fold"}, {"measurement": "CDK1 fold change", "setting": "[2]; n=3", "result": "0.71 ± 0.01", "unit": "fold"}, {"measurement": "CDKN1A fold change", "setting": "[2]; n=3", "result": "37.37 ± 0.55", "unit": "fold"}, {"measurement": "CHEK1 fold change", "setting": "[2]; n=3", "result": "0.71 ± 0.02", "unit": "fold"}, {"measurement": "CHEK2 fold change", "setting": "[2]; n=3", "result": "0.74 ± 0.01", "unit": "fold"}, {"measurement": "DNMT1 fold change", "setting": "[2]; n=3", "result": "0.78 ± 0.03", "unit": "fold"}, {"measurement": "E2F1 fold change", "setting": "[2]; n=3", "result": "0.63 ± 0.02", "unit": "fold"}, {"measurement": "FAS fold change", "setting": "[2]; n=3", "result": "7.34 ± 0.04", "unit": "fold"}, {"measurement": "GADD45A fold change", "setting": "[2]; n=3", "result": "3.68 ± 0.20", "unit": "fold"}, {"measurement": "MDM2 fold change", "setting": "[2]; n=3", "result": "12.97 ± 0.29", "unit": "fold"}, {"measurement": "MSH2 fold change", "setting": "[2]; n=3", "result": "0.70 ± 0.02", "unit": "fold"}, {"measurement": "PIDD1 fold change", "setting": "[2]; n=3", "result": "2.75 ± 0.05", "unit": "fold"}, {"measurement": "PPM1D fold change", "setting": "[2]; n=3", "result": "2.21 ± 0.10", "unit": "fold"}, {"measurement": "PRC1 fold change", "setting": "[2]; n=3", "result": "0.64 ± 0.01", "unit": "fold"}, {"measurement": "SESN2 fold change", "setting": "[2]; n=3", "result": "2.50 ± 0.12", "unit": "fold"}, {"measurement": "TNFRSF10B fold change", "setting": "[2]; n=3", "result": "1.88 ± 0.04", "unit": "fold"}, {"measurement": "TNFRSF10D fold change", "setting": "[2]; n=3", "result": "2.73 ± 0.04", "unit": "fold"}, {"measurement": "TP53 fold change", "setting": "[2]; n=3", "result": "25.95 ± 0.84", "unit": "fold"}, {"measurement": "BTG2* fold change", "setting": "[2]; [4]", "result": "27.82 ± 2.42", "unit": "fold"}, {"measurement": "EGR1* fold change", "setting": "[2]; [4]", "result": "4.40 ± 0.50", "unit": "fold"}, {"measurement": "IL6* fold change", "setting": "[2]; [4]", "result": "1.23 ± 0.01", "unit": "fold"}]}, {"smiles": "O=C(O)COc1ccc(C(=O)c2cccs2)c(Cl)c1Cl", "note": "[Tienilic acid]", "values": [{"measurement": "activity at 20 min, 0.123 µM", "setting": "[3]", "result": 96.5, "unit": "%"}, {"measurement": "activity at 20 min, 0.37 µM", "setting": "[3]", "result": 80.1, "unit": "%"}, {"measurement": "activity at 20 min, 3.33 µM", "setting": "[3]", "result": 32.8, "unit": "%"}, {"measurement": "activity at 20 min, 30 µM", "setting": "[3]", "result": 8.14, "unit": "%"}, {"measurement": "activity at 20 min, […]", "setting": "[3]", "result": "101% and 57.4%"}, {"measurement": "activity at 30 min, 0.123 µM", "setting": "[3]", "result": 74.4, "unit": "%"}, {"measurement": "activity at 30 min, 0.37 µM", "setting": "[3]", "result": 36.8, "unit": "%"}, {"measurement": "activity at 30 min, 3.33 µM", "setting": "[3]", "result": 9.24, "unit": "%"}, {"measurement": "activity at 30 min, 30 µM", "setting": "[3]", "result": 3.84, "unit": "%"}]}]}
